How the values were obtained:
C3H/HeN mouse [1] = assay: hair generation test in hair-removed mouse, application of minoxidil and CXCL1 protein to back skin; assay type: in vivo; settings: applied to back skin for 14 days (FIG. 5); PBS-alone 20 mg
Description: In addition, in the case of combining and using the minoxidil and the CXCL1 protein which were commercialized as a hair generation agent, an experiment for verifying whether the hair generation effect may be better was performed. First, for an experiment for hair regeneration, long hair of a 7-week-old C3H/HeN mouse and the like was shortly cut by using a hair cutting machine and thereafter, the hair was completely removed by using a hair removal agent. After the hair-removed mouse was stabilized for one day, a recombinant protein CXCL1 was mixed with 2% minoxidil (Women's Rogaine, Johnson & Johnson Healthcare Products, USA) to be 1 μg/ml and 10 μg/ml, respectively. The mixture of the minoxidil and the CXCL1 protein was applied to the back skin of the hair-removed mouse for 14 days by […] per day. As a control, a PBS-alone applied group and a 2% minoxidil-alone treated group were set. The hair generation in the back of the mouse was tracked and observed for 14 days and newly generated hair was obtained again and the weight was measured, and the result was illustrated in FIGS. 4 and 5.

[2] = tested on: human dermal papilla cell (DPC); assay: human dermal papilla cell (DPC) proliferation test; assay type: cell-based; settings: 1 ng/ml or 5 ng/ml treated to DPC, 40 hrs, compared to cells without CXCL1 protein (FIG. 1)
Description: A human dermal papilla cell (DPC) proliferation test which is a representative in vitro cell test system for measuring hair proliferation was performed. 1 ng/ml or 5 ng/ml of the CXCL1 protein in Example 1 was treated to DPC, proliferation for 40 hrs was measured, and the result was illustrated in FIG. 1.

C3H/HeN mouse [3] = assay: hair generation test in hair-removed mouse, subcutaneous injection of CXCL1 protein; assay type: in vivo
Description: For a test for verifying a hair generation effect, the back of a 7-week-old C3H/HeN mouse was stabilized by removing hair by using a hair removal agent. After one day, 100 ng/ml of a human chemokine (C-X-C motif) ligand 1 (CXCL1) (SEQ ID NO:1) protein was subcutaneously injected to the back once. As a control, phosphate buffered saline (PBS) including 0.1% BSA at the same volume lysed with the CXCL1 protein was subcutaneously injected. Thereafter, the hair generation of the back of the hair-removed mouse was traced and observed for 15 days. A photograph of tracing and observing the back of the mouse with hair generation was illustrated in FIG. 2.
Further, after 15 days, the hair of the back of the mouse with newly hair generation was removed by using a knife and then the result of measuring the weight of the obtained hair was illustrated in FIG. 3.

Compound | amount of newly generated hair (C3H/HeN mouse [1]) | cell proliferation [2] | hair weight (C3H/HeN mouse [3]; 100 ng/ml subcutaneously injected once, newly generated hair after 15 days (FIG. 3), control 40 mg) [mg] | hair generation of the back (photograph) (C3H/HeN mouse [3]; 100 ng/ml subcutaneously injected to the back once, observed for 15 days, compared with control (FIG. 2)) | new hair relative to PBS-administered group (C3H/HeN mouse [3]; CXCL1 protein-alone administration)
Nc1cc(N2CCCCC2)nc(N)[n+]1[O-] [minoxidil] | about 30 mg | – | – | – | –
chemokine (C-X-C motif) ligand 1 (CXCL1) [CXCL1 protein] | – | cell proliferation was increased | 80 | hair generation was more excellent | about two times greater
